The record followed here is patent US20120230951A1 (priority 2011, published 2012).

pEC50, pIC50: −log10 of the molar value.

For one assay, the system named is HCV GT1b replicon (2209-23 cell line, GT-1b Con1 subgenomic replicon in Huh-7). The assay is described as follows: HCV GT1b replicon luciferase reporter assay. It is filed as cell-based. Particulars: Hepatitis C virus, Huh-7, 2209-23 cells (GT-1b Con1), Renilla luciferase read 72 hours after addition of compounds. From the text: Determination of compounds HCV GT1b inhibitory replicon activity using the replicon luciferase reporter assay
The 2209-23 cell line was developed at Roche by stable transfection of the hepatoma cell line Huh-7 with a GT-1b Con1 subgenomic bicistronic replicon as previously described. Subgenomic replicon cell line was established in cured Huh7 cells, obtained from R. Bartenschlager (J. Virol. 2003 March; 77 (5):3007-19) The GT-1a H77 subgenomic replicon vector pRLuc H771b 75 S/I, was created by replacing the non structural region of the GT-1b Con1 subgenomic replicon by the one of the H77 strain, except for the first 75 amino acids of the NS3 protein that are from GT-1b Con1 strain. (J. Virol. 2001 77:5352-59) The GT-1a pRLuc H771b 75 S/I subgenomic replicon cell line was established in cured Huh7 cells, obtained from R. Bartenschlager. (J. Virol. 2003 March; 77 (5):3007-19)
All the subgenomic replicon cell lines were cultured in Dulbecco's Modified Eagle Medium (DMEM-Glutamax™-I; Invitrogen Cat #10569-010). The medium was supplemented with 10% Fetal Bovine Serum (Invitrogen Cat #10082-147), 1% penicillin/streptomycin (Mediatech Cat #30-002-CI) and 500 μg/ml of G418 (Mediatech Cat #30-234-CI). Cells were maintained at 37° C. in a humidified 5% CO2 atmosphere.
2209-23 cells were plated at a cell density of 5000 cells per well in 96 well plates (Becton Dickinson, Cat #35 3296). Cells were plated in 90 μl of Dulbecco's Modified Eagle Medium (DMEM-Glutamax™-I), (Invitrogen Cat #10569-010) medium was supplemented with 5% Fetal Bovine Serum (Invitrogen Cat #10082-147), 1% penicillin/streptomycin (Mediatech Cat #30-002-CI). The pRluc H771b 75 S/I cells were plated in 96-well plate at 3000 cells/well in DMEM-Glutamax™-I containing 5% FBS and 1% penicillin/streptomycin in 90 μl final volume. Cells were allowed to equilibrate for 24 hours at 37° C. and 5% CO2 at which time compounds were added. Compounds (or medium as a control) were added 24 hours post-plating in 3 fold dilutions at a final DMSO concentration of 1% in 10 ul volume. Renilla luciferase reporter signal was read 72 hours after addition of compounds using the Renilla Luciferase Assay System (Promega, cat #E2820). EC50 values were defined as the compound concentration at which a 50% reduction in the levels of renilla luciferase reporter was observed as compared to control samples in the absence of compound and was determined by non-linear fitting of compound dose-response data. The EC50 was approximated if maximum percentage inhibition was less than 90% and more than 70%.
For orientation: Replicon systems follow genome replication, usually without infectious particles.
In turn, `COC(=O)N[C@H]1CCc2cccc3c2N(C1=O)[C@H](c1ncc(-c2ccc(-c4ccc(-c5cnc([C@@H]6CCCN6C(=O)[C@@H](NC(=O)OC)C(C)C)[nH]5)cc4)cc2)[nH]1)C3` [Compound I-66, {(2S,5S)-2-[5-(4′-{2-[(S)-1-((S)-2-Methoxycarbonylamino-3-methyl-butyryl)-pyrrolidin-2-yl]-3H-imidazol-4-yl}-biphenyl-4-yl)-1H-imidazol-2-yl]-4-oxo-1,2,4,5,6,7-hexahydro-azepino[3,2,1-hi]indol-5-yl}-carbamic acid methyl ester] gave a pEC50 of 10.44.
`COC(=O)N[C@H]1CCc2cccc3c2N(C1=O)[C@H](c1ncc(-c2ccc(-c4ccc(-c5cnc([C@@H]6CCCN7C(=O)CC[C@H](NC(=O)OC)C(=O)N67)[nH]5)cc4)cc2)[nH]1)C3` [Compound I-67] gave a pEC50 of 9.28. Compared with the last molecule, the pEC50 is 1.16 log units lower.
In the case of `COC(=O)N[C@H]1CCc2cccc3c2N(C1=O)[C@H](c1nc2ccc(-c4ccc5cc(-c6cnc([C@@H]7CCCN7C(=O)[C@@H](NC(=O)OC)C(C)C)[nH]6)ccc5c4)cc2[nH]1)C3` [Compound I-68], the pEC50 is 10.21.

The same assay, now with this note: Hepatitis C virus, Huh-7, 2209-23 cells (GT-1b Con1), Renilla luciferase read 72 hours after addition of compounds, read-out: GT-1b (IC50).
Consider `COC(=O)N[C@H]1CCc2cccc3c2N(C1=O)[C@H](c1ncc(-c2ccc(-c4ccc5cc(-c6cnc([C@@H]7CCCN7C(=O)[C@@H](NC(=O)OC)C(C)C)[nH]6)ccc5c4)cc2)[nH]1)C3` [Compound I-31, {(2S,5S)-2-[5-(4-(6-{2-[(S)-1-((S)-2-Methoxycarbonylamino-3-methyl-butyryl)-pyrrolidin-2-yl]-3H-imidazol-4-yl}-naphthalen-2-yl)-phenyl)-1H-imidazol-2-yl]-4-oxo-1,2,4,5,6,7-hexahydro-azepino[3,2,1-hi]indol-5-yl}-carbamic acid methyl ester], for which the pIC50 is 9.39.
On the same count and under the same terms, to `COC(=O)N[C@H]1CCc2cccc3c2N(C1=O)[C@H](c1ncc(-c2ccc(-c4cnc5cc(-c6cnc([C@@H]7CCCN7C(=O)[C@H](NC(=O)OC)c7ccccc7)[nH]6)ccc5n4)cc2)[nH]1)C3` [Compound I-55, ((2S,5S)-2-{5-[4-(6-{2-[(S)-1-((R)-2-Methoxycarbonylamino-2-phenyl-acetyl)-pyrrolidin-2-yl]-3H-imidazol-4-yl}-quinoxalin-2-yl)-phenyl]-1H-imidazol-2-yl}-4-oxo-1,2,4,5,6,7-hexahydro-azepino[3,2,1-hi]indol-5-yl)-carbamic acid methyl ester] belongs 11.00.

The next assay has as its system GT-1a pRLuc H771b 75 S/I subgenomic replicon cell line. The assay is described as follows: HCV GT-1a replicon luciferase reporter assay. The format is cell-based. Particulars: Hepatitis C virus, GT1A, 72 h, read-out: GT-1a (IC50) (nM). Put shortly:
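Huh-7-derived subgenomic replicon cells (GT-1b Con1 2209-23, 5000/well; GT-1a H77 chimera with Con1 NS3 first 75 aa, 3000/well) in 5% FBS DMEM; compounds added 24 h post-plating, 3-fold dilutions, 1% DMSO. Renilla luciferase read after 72 h; EC50 is 50% signal reduction versus untreated, non-linear fit.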
Consider `COC(=O)N[C@H]1CCc2cccc3c2N(C1=O)[C@H](c1ncc(-c2ccc(-c4ccc5cc(-c6cnc([C@@H]7CCCN7C(=O)[C@@H](NC(=O)OC)C(C)C)[nH]6)ccc5c4)cc2)[nH]1)C3` [Compound I-31, {(2S,5S)-2-[5-(4-(6-{2-[(S)-1-((S)-2-Methoxycarbonylamino-3-methyl-butyryl)-pyrrolidin-2-yl]-3H-imidazol-4-yl}-naphthalen-2-yl)-phenyl)-1H-imidazol-2-yl]-4-oxo-1,2,4,5,6,7-hexahydro-azepino[3,2,1-hi]indol-5-yl}-carbamic acid methyl ester], for which the IC50 is 1.13 nM.
On the same count and under the same terms, to `COC(=O)N[C@H]1CCc2cccc3c2N(C1=O)[C@H](c1ncc(-c2ccc(-c4cnc5cc(-c6cnc([C@@H]7CCCN7C(=O)[C@H](NC(=O)OC)c7ccccc7)[nH]6)ccc5n4)cc2)[nH]1)C3` [Compound I-55, ((2S,5S)-2-{5-[4-(6-{2-[(S)-1-((R)-2-Methoxycarbonylamino-2-phenyl-acetyl)-pyrrolidin-2-yl]-3H-imidazol-4-yl}-quinoxalin-2-yl)-phenyl]-1H-imidazol-2-yl}-4-oxo-1,2,4,5,6,7-hexahydro-azepino[3,2,1-hi]indol-5-yl)-carbamic acid methyl ester] belongs 0.79 nM.
The same measure, in the same setting: to `COC(=O)N[C@H]1CCc2cccc3c2N(C1=O)[C@H](c1ncc(-c2ccc(-c4ccc(-c5nnc([C@@H]6CCCN6C(=O)[C@H](NC(=O)OC)c6ccccc6)[nH]5)cc4)cc2)[nH]1)C3` [Compound I-60, {(2S,5S)-2-[5-(4′-{5-[(S)-1-((R)-2-Methoxycarbonylamino-2-phenyl-acetyl)-pyrrolidin-2-yl]-4H-[1,2,4]triazol-3-yl}-biphenyl-4-yl)-1H-imidazol-2-yl]-4-oxo-1,2,4,5,6,7-hexahydro-azepino[3,2,1-hi]indol-5-yl}-carbamic acid methyl ester] belongs 51.4 nM.
On the same count and under the same terms, to `COC(=O)N[C@H]1CCc2cccc3c2N(C1=O)[C@H](c1ncc(-c2ccc(-c4ccc(-c5nnc([C@@H]6CCCN6C(=O)[C@@H](NC(=O)OC)C(C)C)[nH]5)cc4)cc2)[nH]1)C3` [Compound I-61, {(2S,5S)-2-[5-(4′-{5-[(S)-1-((S)-2-Methoxycarbonylamino-3-methyl-butyryl)-pyrrolidin-2-yl]-4H-[1,2,4]triazol-3-yl}-biphenyl-4-yl)-1H-imidazol-2-yl]-4-oxo-1,2,4,5,6,7-hexahydro-azepino[3,2,1-hi]indol-5-yl}-carbamic acid methyl ester] belongs 67.2 nM; to `COC(=O)NC(C(=O)N1CCCC1c1ncc(-c2ccc(-c3ccc(-c4cnc([C@@H]5Cc6cc(C#N)cc7c6N5C(=O)[C@@H](NC(=O)OC)CC7)[nH]4)cc3)cc2)[nH]1)C(C)C` (stereo in doubt) [Compound I-26, {(2S,5S)-9-Cyano-2-[5-(4′-{2-[(R)-1-((R)-2-methoxycarbonylamino-3-methyl-butyryl)-pyrrolidin-2-yl]-3H-imidazol-4-yl}-biphenyl-4-yl)-1H-imidazol-2-yl]-4-oxo-1,2,4,5,6,7-hexahydro-azepino[3,2,1-hi]indol-5-yl}-carbamic acid methyl ester], 7.71 nM.
Consider `COC(=O)N[C@H]1CCc2cccc3c2N(C1=O)[C@H](c1ncc(-c2ccc(-c4ccc5nc([C@@H]6CCCN6C(=O)[C@@H](NC(=O)OC)C(C)C)[nH]c5c4)cc2)[nH]1)C3` [Compound I-3, {(2S,5S)-2-[5-(4-{2-[(S)-1-((S)-2-Methoxycarbonylamino-3-methyl-butyryl)-pyrrolidin-2-yl]-3H-benzoimidazol-5-yl}-phenyl)-1H-imidazol-2-yl]-4-oxo-1,2,4,5,6,7-hexahydro-azepino[3,2,1-hi]indol-5-yl}-carbamic acid methyl ester], for which the IC50 is 660 nM.
The same measure, in the same setting: to `CC[C@H](NC(=O)OC)C(=O)N1CCC[C@H]1c1ncc(-c2ccc(-c3ccc(-c4cnc([C@@H]5Cc6cccc7c6N5C(=O)[C@@H](NC(=O)OC)CC7)[nH]4)cc3)cc2)[nH]1` [Compound I-45] belongs 17.1 nM; to `COC(=O)N[C@H]1CCc2cccc3c2N(C1=O)[C@H](c1ncc(-c2ccc(-c4ccc(-c5cnc([C@@H]6CCCN6C(=O)[C@@H](NC(=O)OC)C(C)C)[nH]5)cc4)cc2F)[nH]1)C3` [Compound I-36, {(2S,5S)-2-[5-(3-Fluoro-4′-{2-[(S)-1-((S)-2-methoxycarbonylamino-3-methyl-butyryl)-pyrrolidin-2-yl]-1H-imidazol-4-yl}-biphenyl-4-yl)-1H-imidazol-2-yl]-4-oxo-1,2,4,5,6,7-hexahydro-azepino[3,2,1-hi]indol-5-yl}-carbamic acid methyl ester], 13.8 nM; to `COC(=O)N[C@H]1CCc2cccc3c2N(C1=O)[C@H](c1ncc(-c2ccc(-c4ccc(-c5cnc([C@@H]6CCCN6C(=O)[C@@H](NC(=O)OC)C6CC6)[nH]5)cc4)cc2)[nH]1)C3` [Compound I-44], 11.4 nM.
The same measure, in the same setting: to `COC(=O)N[C@H]1CCc2cccc3c2N(C1=O)[C@H](c1ncc(-c2ccc(-c4ccc(-c5cnc([C@@H]6CCCN6C(=O)[C@@H](NC(=O)OC)[C@@H](C)O)[nH]5)cc4)cc2)[nH]1)C3` (stereo in doubt) [Compound I-50, {(2S,5S)-2-[5-(4-{2-[(S)-1-((S)-3-Hydroxy-2-methoxycarbonylamino-butyl)-pyrolidin-2-yl]-3H-imidazol-4-yl}-biphenyl-4-yl)-1H-imidazol-2-yl]-4-oxo-1,2,4,5,6,7-hexahydro-azepino[3,2,1-hi]indol-5-yl}-carbamic acid methyl ester] belongs 6.62 nM; to `COC(=O)N[C@H]1CCc2cccc3c2N(C1=O)[C@H](c1ncc(-c2ccc(-c4ccc(-c5cnc([C@@H]6COCCN6C(=O)[C@@H](NC(=O)OC)C(C)C)[nH]5)cc4)cc2)[nH]1)C3` [Compound I-64, {(2S,5S)-2-[5-(4′-{2-[(R)-4-((S)-2-Methoxycarbonylamino-3-methyl-butyryl)-morpholin-3-yl]-3H-imidazol-4-yl}-biphenyl-4-yl)-1H-imidazol-2-yl]-4-oxo-1,2,4,5,6,7-hexahydro-azepino[3,2,1-hi]indol-5-yl}-carbamic acid methyl ester], 9.87 nM.

In general, pEC50 refers to the negative decadic logarithm of the EC50, by convention in mol/L. Read a high pEC50 as a small EC50. By pIC50 is commonly meant −log10 of the IC50, conventionally taken in molar units. What is called IC50 is the concentration at which inhibition is half-maximal.
